“And” between values parts separate entries of the source, which are not always exact repeats. Equal values may be shown once.
Columns and labels:
Assay type in all cases: cell-based
320 non-olfactory GPCRs [1] = biological target: T1, 320 non-olfactory GPCRs (Homo sapiens, UniProt P30556)
T1 construct: expressed in transfected cells; host or cells: HTLA cells

320 non-olfactory GPCRs [2] = biological target: T2, 320 non-olfactory GPCRs (Homo sapiens, UniProt P35410); conditions: receptor MAS1L; replicate values, Fig_4g
T2 construct: expressed in transfected cells; host or cells: HTLA cells

320 non-olfactory GPCRs [3] = biological target: T3, 320 non-olfactory GPCRs (Homo sapiens, UniProt P41180)
T3 construct: expressed in transfected cells; host or cells: HTLA cells

320 non-olfactory GPCRs [4] = biological target: T4, 320 non-olfactory GPCRs (Homo sapiens, UniProt Q96P68); conditions: receptor OXGR1; replicate values, Fig_4g
T4 construct: expressed in transfected cells; host or cells: HTLA cells
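For Fold of Basal in this document: compound tested at 1 µM final concentration.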
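For GPCRome agonism screen response in this document: fold over basal response of each receptor without drug.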

T2 sequence (P35410 whole entry): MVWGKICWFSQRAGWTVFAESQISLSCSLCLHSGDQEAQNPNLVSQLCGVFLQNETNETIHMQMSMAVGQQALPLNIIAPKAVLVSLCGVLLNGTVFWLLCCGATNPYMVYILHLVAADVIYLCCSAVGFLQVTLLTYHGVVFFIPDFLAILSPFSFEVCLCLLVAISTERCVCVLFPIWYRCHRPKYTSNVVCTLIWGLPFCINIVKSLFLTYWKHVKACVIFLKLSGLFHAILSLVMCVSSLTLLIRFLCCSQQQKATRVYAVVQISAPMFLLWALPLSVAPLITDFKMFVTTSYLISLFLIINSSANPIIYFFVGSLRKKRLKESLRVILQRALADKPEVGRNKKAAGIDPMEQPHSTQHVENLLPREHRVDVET
T1 sequence (P30556 whole entry): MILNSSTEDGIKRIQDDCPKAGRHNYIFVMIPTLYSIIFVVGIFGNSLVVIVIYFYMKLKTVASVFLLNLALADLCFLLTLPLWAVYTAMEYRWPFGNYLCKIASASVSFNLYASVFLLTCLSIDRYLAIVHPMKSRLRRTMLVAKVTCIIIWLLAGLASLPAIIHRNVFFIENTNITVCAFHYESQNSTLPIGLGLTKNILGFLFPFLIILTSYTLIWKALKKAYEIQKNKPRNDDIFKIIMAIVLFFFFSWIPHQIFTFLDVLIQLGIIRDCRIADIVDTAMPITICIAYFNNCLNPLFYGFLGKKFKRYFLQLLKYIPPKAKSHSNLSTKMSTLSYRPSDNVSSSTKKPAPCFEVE
T3 sequence (P41180 20-1078): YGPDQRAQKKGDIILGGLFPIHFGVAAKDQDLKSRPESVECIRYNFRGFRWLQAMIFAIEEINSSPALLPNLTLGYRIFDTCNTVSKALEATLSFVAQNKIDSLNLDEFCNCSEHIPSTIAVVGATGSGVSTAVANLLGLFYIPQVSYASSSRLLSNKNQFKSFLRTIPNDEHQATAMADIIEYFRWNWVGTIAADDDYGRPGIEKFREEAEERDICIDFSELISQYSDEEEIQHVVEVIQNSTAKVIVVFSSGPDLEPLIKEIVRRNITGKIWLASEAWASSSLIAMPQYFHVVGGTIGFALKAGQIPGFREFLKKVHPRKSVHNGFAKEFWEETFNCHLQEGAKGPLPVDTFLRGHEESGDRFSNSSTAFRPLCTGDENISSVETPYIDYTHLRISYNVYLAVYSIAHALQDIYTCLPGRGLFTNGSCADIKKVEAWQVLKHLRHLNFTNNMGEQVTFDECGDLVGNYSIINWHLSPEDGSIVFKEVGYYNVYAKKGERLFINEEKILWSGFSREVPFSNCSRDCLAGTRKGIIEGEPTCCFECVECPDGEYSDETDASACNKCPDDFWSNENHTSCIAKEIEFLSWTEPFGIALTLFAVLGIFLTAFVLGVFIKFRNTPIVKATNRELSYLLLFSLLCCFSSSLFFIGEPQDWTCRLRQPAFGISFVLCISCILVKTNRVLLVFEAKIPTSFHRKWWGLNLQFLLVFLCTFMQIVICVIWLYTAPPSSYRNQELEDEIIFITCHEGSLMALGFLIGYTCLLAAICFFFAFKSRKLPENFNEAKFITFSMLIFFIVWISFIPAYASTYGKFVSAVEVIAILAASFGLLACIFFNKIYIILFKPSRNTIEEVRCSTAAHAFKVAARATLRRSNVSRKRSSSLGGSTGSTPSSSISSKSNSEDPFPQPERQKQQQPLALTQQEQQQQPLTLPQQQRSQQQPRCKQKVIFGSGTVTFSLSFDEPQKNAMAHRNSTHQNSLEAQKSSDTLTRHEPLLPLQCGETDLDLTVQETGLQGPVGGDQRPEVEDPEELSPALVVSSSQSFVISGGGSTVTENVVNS

Q: `CCOc1cccc2cc(C(C)NCC3(O)CCCCC3)oc12` (stereo not shown) [O4LE6] was tested. Which “Fold of Basal” value (320 non-olfactory GPCRs [1]) did it give?
A: The value was 1.668 and 2.301 and 2.105 and 2.204.

Q: And the “GPCRome agonism screen response” value (320 non-olfactory GPCRs [2])?
A: Its value is 0.5688 and 0.6917 and 1.207 and 0.7272.

Q: What about the “Fold of Basal” value (320 non-olfactory GPCRs [3]) of the same molecule?
A: The value was 0.9783 and 1.253 and 1.231 and 1.397.

Q: What about the “GPCRome agonism screen response” value (320 non-olfactory GPCRs [4]) of the same molecule?
A: Its value is 1.363 and 1.785 and 0.5079 and 1.083.

Reference: paper PMC7044277 (Nature Communications, 2020)
